Test results reported in PMC10299677, “Fluorinated Benzofuran and Dihydrobenzofuran as Anti-Inflammatory and Potential Anticancer Agents” (International Journal of Molecular Sciences, 2023).
“Also recorded” adds a separate entry of the source.

Columns and labels:
IL-6 mRNA = test: LPS-dependent IL-6 mRNA in THP-1-derived macrophages (RT-PCR); format: cell-based, human; conditions: 50 µM, 10 ng/ml LPS 6 h
Method: F i g u re S3: Eff ect of benzofuran compounds on the lev els of LP S -dependent mRNA of CCL2 and IL-6 in THP-1 –deriv ed macrophages. Human-monoc yti c cell l ine-THP-1 wer e treat ed with PMA (25 nM for 48 hours) th en in cub ated with 50 μM compounds for 30 minutes b efo re the addit ion of 10 ng/ml LP S fo r 6 hours. Gene ex pression of IL6 and CCL2 were measur ed by RT-PCR and the v alu es wer e nor mal ized to GAPDH. Results represent means ± SEM by one way ANOVA followed by Dunnett test.

CCL2 = CCL2 release in LPS-treated macrophages (BMDM); format: cell-based, C57BL/6J mice; conditions: for effect on CCL2 secretion: 10 µM for compound 1, 50 µM for others, LPS 24 h; for IC50: Mus musculus, Macrophage, compounds 30 min prior to 10 ng/mL LPS for 24 h
Method: C57BL/6J (10–15 weeks old) male mice were obtained from the animal care facility at the American University of Beirut. All animal procedures were performed following the recommendations of the IACUC (Institutional Animal Care and Use Committee approval 16-09-M379). BMDMs were prepared and characterized as described previously by our group. BMDMs were isolated from C57BL/6J mice by flushing the femur and tibia with RPMI-1640 culture media (Sigma-Aldrich R7388), and cells were collected and centrifuged at 300× g for 5 min. The supernatant was discarded, and the pellet was resuspended in 2 mL red blood lysis 10% (Sigma-Aldrich R7767) medium in PBS and incubated for 5 min at room temperature. After diluting the suspension of cells with 5 mL of RPMI containing 10% FBS and 1% penicillin–streptomycin, cells were centrifuged at 300× g for 5 min, and the cell pellet was resuspended in RPMI media containing 10% FBS supplemented with 15% L929-conditioned medium containing macrophage-colony stimulating factor (M-CSF1) and plated on […]. Cells were allowed to proliferate and differentiate for 5–6 days. Cells were harvested, washed, and allowed to adhere overnight in RPMI containing 10% FBS for treatment. Cells were previously characterized by flow cytometry as macrophages using this method. […] Cells were plated at 0.8 × 10^6 cells per 3.8 cm^2 well [27].
BMDMs were then treated with different concentrations of the benzofuran and dihydrobenzofuran derivatives for 30 min prior to the addition of 10 ng/mL LPS for 24 h. […] The supernatants were assessed for IL-6, PGE2, CCL2, and nitrite, the stable derivative of NO, as described previously.
(§1) IL-6, CCL2, nitrite (for NO), and PGE2 concentrations from 3–5 independent experiments were expressed as percentage of LPS alone and as mean ± SEM. COX activity was determined as percentage of PGE2 produced from exogenous arachidonic acid. Curve fitting and calculation of IC50 values were performed using GraphPad Prism (version 9.5.1 Software, La Jolla, CA, USA).

COX-2 = biological target: T1, COX-2 (Mus musculus, UniProt Q05769); test: COX-2 activity: PGE2 from exogenous arachidonic acid in aspirin-pretreated, 24 h LPS-treated macrophages; format: cell-based, C57BL/6J mice; conditions: 10 µM arachidonic acid; for effect on COX-2 activity: 50 µM, aspirin-pretreated LPS-treated macrophages; for IC50: aspirin-pretreated, 24 h LPS-treated macrophages
T1 construct: prior to the addition of LPS for 24 h to induce COX-2; endogenous in cells; host or cells: Bone marrow-derived macrophages from C57BL/6J mice, aspirin-pretreated, then LPS 24 h
T1 sequence (Q05769 18-604): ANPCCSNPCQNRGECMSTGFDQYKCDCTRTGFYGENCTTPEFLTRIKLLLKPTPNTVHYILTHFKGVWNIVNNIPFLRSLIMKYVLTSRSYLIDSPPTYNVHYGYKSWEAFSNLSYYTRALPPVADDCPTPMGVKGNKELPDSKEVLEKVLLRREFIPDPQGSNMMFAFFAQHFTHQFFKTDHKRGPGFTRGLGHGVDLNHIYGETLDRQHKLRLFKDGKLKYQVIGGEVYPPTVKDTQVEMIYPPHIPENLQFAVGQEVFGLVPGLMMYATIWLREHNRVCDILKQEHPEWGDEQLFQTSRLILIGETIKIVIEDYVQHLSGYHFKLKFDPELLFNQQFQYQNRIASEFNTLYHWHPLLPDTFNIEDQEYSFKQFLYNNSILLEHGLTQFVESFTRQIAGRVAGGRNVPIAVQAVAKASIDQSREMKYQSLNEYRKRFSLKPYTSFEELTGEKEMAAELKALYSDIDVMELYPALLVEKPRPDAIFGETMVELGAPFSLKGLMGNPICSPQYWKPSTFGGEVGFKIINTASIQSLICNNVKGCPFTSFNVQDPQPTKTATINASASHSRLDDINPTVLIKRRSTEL
Method: (A) Illustration for COX-1 activity assay. […] (B) COX-1 activity. […] (C) Illustration for COX-2 activity determination. Macrophages are treated with 10 µM of aspirin (ASA) for 30 min to block basal COX activity, washed, and treated with 10 ng/mL LPS for 24 h to induce COX-2. Cells are then washed and incubated 30 min with 50 µM of the different compounds prior to the addition of 10 µM of AA. The produced PGE2 mainly reflects COX-2 activity. (D) COX-2 activity. Percentage of LPS-treated cells was calculated, and data are represented as mean ± SEM (n = 4); * p < 0.05 versus AA for COX-1 activity, and versus LPS + ASA + AA for COX-2 activity (one-way ANOVA followed by Dunnett’s test).
For both COX-1 and COX-2 assays, the benzofuran compounds were then added to the cells for 30 min prior to the incubation with 10 µM arachidonic acid for another 30 min. PGE2 was then measured using an enzyme immunoassay, as described previously.
as §1

Row | Compound | IC50 (CCL2) | IC50 (COX-2) | effect on IL-6 mRNA levels (IL-6 mRNA) | effect on CCL2 secretion (CCL2) | effect on COX-2 activity (COX-2)
1 | O=C(O)Cc1oc2ccc(-c3ccccc3)cc2c1F [Compound 5] |  | 28.1 µM |  |  | strongly reduced; also recorded: direct inhibitory effect
2 | C=C(C)c1ccc2oc(CC(=O)O)c(F)c2c1 [Compound 6] |  | 13 µM |  |  | strongly reduced; also recorded: direct inhibitory effect

Now from value to molecule, other results behind:

Row | IC50 (CCL2) | IC50 (COX-2) | Compound | effect on IL-6 mRNA levels (IL-6 mRNA) | effect on CCL2 secretion (CCL2) | effect on COX-2 activity (COX-2)
3 | 1.52 µM |  | O=C(O)/C=C1/Oc2ccc(Br)cc2C1(F)F [Compound 2] | decreased significantly | significant decreases | 
4 | 19.3 µM |  | COC(=O)CC1(O)Oc2ccc(Br)cc2C1(F)F (centres unmarked) [Compound 8] |  | significant decreases | without any effect
5 | 1.5 µM |  | O=C(O)/C=C1\Oc2ccc(Br)cc2C1(F)F [Compound 3] | to a lesser extent | significant decreases | slight reduction
6 | 8 µM |  | COC(=O)/C=C1/Oc2ccc(Br)cc2C1(F)F [Compound 1] | decreased significantly | moderate effect | 
